We go through 22 compounds from patent US20230406831A1, “COMPOUNDS AND METHODS OF INHIBITING BACTERIAL CHAPERONIN SYSTEMS” (THE TRUSTEES OF INDIANA UNIVERSITY, priority 2020, published 2023).

pIC50: −log10 of the molar value. Where two headings read alike, the source gives them in different places.

One assay deals with T1, native MDH (Sus scrofa, UniProt P00346).
T1 construct: soluble pig heart MDH from Roche, product #10127248001; purchased Roche 10127248001; host or cells: pig heart
T1 sequence (P00346 25-338): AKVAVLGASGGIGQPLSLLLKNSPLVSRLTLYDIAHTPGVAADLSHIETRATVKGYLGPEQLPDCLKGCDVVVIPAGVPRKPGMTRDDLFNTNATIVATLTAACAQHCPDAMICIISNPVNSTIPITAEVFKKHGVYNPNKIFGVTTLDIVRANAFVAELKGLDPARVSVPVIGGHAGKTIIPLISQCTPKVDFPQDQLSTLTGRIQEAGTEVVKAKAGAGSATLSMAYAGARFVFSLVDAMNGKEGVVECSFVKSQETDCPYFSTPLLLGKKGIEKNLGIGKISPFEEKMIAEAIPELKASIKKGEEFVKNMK
Description: Native MDH enzymatic activity counter-screen. The class given is biochemical, pig. Particulars: compounds added after refolding and EDTA quench, read-out: Biochemical Assay IC50 Native MDH Activity. The method in brief:
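GroEL/ES-refolded MDH (45 min, 37 °C, no compound) quenched with EDTA before compound addition, so only refolded enzyme is exposed. Activity started with 20 mM sodium mesoxalate and 2.4 mM NADH stock (50 mM Tris pH 7.4, 50 mM KCl, 1 mM DTT); NADH A340 followed to ~90% consumption.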

The target in a further assay is T2, HSP60/10 (Homo sapiens, UniProt P10809).
T2 construct: octa-Histidine (His8) tag, TEV-cleavable (N, cleaved yes); made in house; host or cells: HSP60 in Rosetta 2 (DE3) E. coli; HSP10 in Rosetta 2 (DE3) pLysS
Description: HSP60/10-mediated dMDH refolding assay. Particulars: 37° C., 1 mM ATP, read-out: Biochemical Assay IC50 HSP60/10-dMDH Refolding. The class given is biochemical. The method in brief: (§1)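 Pre-formed chaperonin–denatured pig heart MDH complexes (50 nM GroEL or HSP60, 60 nM GroES or HSP10, 12 nM dMDH) refolded with 1 mM ATP and compound (100 μM–46 nM) at 37 °C, ~20-40 min for GroEL/ES or ~40-60 min for HSP60/10. After EDTA quench, MDH activity was read as NADH loss at A340. IC50 came from variable-slope regression.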

Another assay addresses T3, GroEL/ES (Escherichia coli, UniProt P0A6F5).
T3 construct: made in house; host or cells: GroEL in E. coli DH5a; GroES in E. coli BL21 (DE3)
Description: GroEL/ES-mediated dMDH refolding assay. The assay is classed as biochemical, E. coli. The method, boiled down: as §1

T2 sequence (P10809 27-573): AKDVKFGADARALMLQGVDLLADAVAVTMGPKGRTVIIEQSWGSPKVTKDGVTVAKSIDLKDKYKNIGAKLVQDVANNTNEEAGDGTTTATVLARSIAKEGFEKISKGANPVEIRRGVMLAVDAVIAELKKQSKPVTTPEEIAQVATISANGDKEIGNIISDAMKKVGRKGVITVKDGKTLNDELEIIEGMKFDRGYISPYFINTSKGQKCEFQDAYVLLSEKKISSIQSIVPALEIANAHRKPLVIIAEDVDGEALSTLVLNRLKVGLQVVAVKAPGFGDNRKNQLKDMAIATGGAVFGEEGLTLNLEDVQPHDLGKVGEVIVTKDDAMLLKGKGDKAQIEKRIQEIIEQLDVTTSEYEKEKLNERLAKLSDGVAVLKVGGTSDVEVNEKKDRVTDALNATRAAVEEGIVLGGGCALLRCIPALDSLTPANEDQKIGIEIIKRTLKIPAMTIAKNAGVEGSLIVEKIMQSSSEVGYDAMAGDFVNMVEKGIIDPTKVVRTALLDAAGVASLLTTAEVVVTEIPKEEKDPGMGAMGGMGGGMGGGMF
T3 sequence (P0A6F5 2-548): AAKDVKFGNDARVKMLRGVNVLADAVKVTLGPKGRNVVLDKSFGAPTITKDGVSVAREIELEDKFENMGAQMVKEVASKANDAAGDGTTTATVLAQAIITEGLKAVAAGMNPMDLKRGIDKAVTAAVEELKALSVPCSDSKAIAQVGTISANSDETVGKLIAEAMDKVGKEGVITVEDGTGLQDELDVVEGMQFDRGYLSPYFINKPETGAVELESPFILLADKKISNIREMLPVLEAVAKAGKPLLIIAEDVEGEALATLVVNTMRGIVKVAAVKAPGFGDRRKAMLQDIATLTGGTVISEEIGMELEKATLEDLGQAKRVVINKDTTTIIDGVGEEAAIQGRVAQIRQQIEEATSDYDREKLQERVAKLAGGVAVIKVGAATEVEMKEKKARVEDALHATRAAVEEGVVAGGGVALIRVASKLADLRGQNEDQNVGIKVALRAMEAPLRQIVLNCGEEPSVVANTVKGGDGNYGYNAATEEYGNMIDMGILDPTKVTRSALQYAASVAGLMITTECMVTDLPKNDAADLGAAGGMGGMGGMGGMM

Regarding `O=C(Nc1ccc([N+](=O)[O-])cc1Cl)c1cc(Cl)ccc1O` [Niclosamide, reference compound], the pIC50 at native MDH (Table 1) is below 4.20; on native MDH (Table 3), below 4.20; on HSP60/10 (Table 1) it was below 4.00; at HSP60/10 (Table 3), below 4.00; against GroEL/ES, below 4.00; at GroEL/ES (read-out: Biochemical Assay IC50 GroEL/ES-dMDH Refolding, Table 3, 37° C., 1 mM ATP), below 4.00.
`Cc1cc(C(C#N)c2ccc(Cl)cc2)c(Cl)cc1NC(=O)c1ccc(O)cc1` (centres unmarked) [Compound 66, N-(5-chloro-4-((4-chlorophenyl)(cyano)methyl)-2-methylphenyl)-4-hydroxybenzamide]: the values for the pIC50 at native MDH (Table 2), at HSP60/10 (Table 2) and against GroEL/ES were below 4.20, 4.46 and 4.33, respectively.
For the compound `O=C(Nc1ccc(CCc2ccccc2)cc1)c1cc(Cl)ccc1O` [Compound 101], the pIC50 at native MDH (Table 3) is below 4.20; at HSP60/10 (Table 3), 4.09; on GroEL/ES, 4.27.
Taken in the same sequence, the figures for `COc1ccc(Cl)cc1C(=O)Nc1ccc(C(=O)O)cc1` [Compound 108, 4-(5-chloro-2-methoxybenzamido)benzoic acid] were below 4.20, below 4.00 and below 4.00.
Consider `COc1ccc(Cl)cc1C(=O)Nc1cc(Cl)c(C(C#N)c2ccc(Cl)cc2)cc1C` (centres unmarked) [Compound 57, 5-chloro-N-(5-chloro-4-((4-chlorophenyl)(cyano)methyl)-2-methylphenyl)-2-methoxybenzamide], for which the pIC50 on native MDH (Table 2) is below 4.20; on native MDH (Table 3) it was below 4.20; at HSP60/10 (Table 2) it was below 4.00; at HSP60/10 (Table 3), below 4.00; against GroEL/ES, 4.23.
For `COc1ccc(Cl)cc1C(=O)Nc1ccc(Oc2ccc(Cl)cc2)c(Cl)c1` [Compound 86, 5-chloro-N-(3-chloro-4-(4-chlorophenoxy)phenyl)-2-methoxybenzamide], the pIC50 on native MDH (Table 3) was below 4.20; on HSP60/10 (Table 3), below 4.00; against GroEL/ES it was below 4.00.
As for `O=C(Nc1ccc(O)cc1)c1cc(Cl)ccc1O` [Compound 115, 5-chloro-2-hydroxy-N-(4-hydroxyphenyl)benzamide], the pIC50 on native MDH (Table 3) is below 4.20; at HSP60/10 (Table 3), below 4.00; on GroEL/ES it was below 4.00.
For the compound `Cc1cc(C(C#N)c2ccc(Cl)cc2)c(Cl)cc1NC(=O)c1cccc(F)c1` (centres unmarked) [Compound 80, N-(5-chloro-4-((4-chlorophenyl)(cyano)methyl)-2-methylphenyl)-3-fluorobenzamide], the pIC50 is below 4.20 on native MDH (Table 2), below 4.00 at HSP60/10 (Table 2) and 4.11 on GroEL/ES.
On to `COc1ccc(Cl)cc1C(=O)Nc1ccc(C(C#N)c2ccccc2)cc1` (centres unmarked) [Compound 84, 5-chloro-N-(4-(cyano(phenyl)methyl)phenyl)-2-methoxybenzamide], for which the pIC50 on native MDH (Table 3) is below 4.20; at HSP60/10 (Table 3), below 4.00; on GroEL/ES, 4.03.
Taken in the same sequence, the figures for `O=C(Nc1ccc(Oc2ccccc2)cc1)c1cc(Cl)ccc1O` [Compound 93, 5-chloro-2-hydroxy-N-(4-phenoxyphenyl)benzamide] were below 4.20, below 4.00 and 4.17.
Taken in the same sequence, the figures for `COc1ccc(Cl)cc1C(=O)Nc1ccc(Sc2nc3ccccc3s2)cc1` [Compound 96, N-(4-(benzo[d]thiazol-2-ylthio)phenyl)-5-chloro-2-methoxybenzamide] were below 4.20, below 4.00 and 4.23.
With `Cc1cc(C(C#N)c2ccc(Cl)cc2)c(Cl)cc1NC(=O)c1ccccc1N` (centres unmarked) [Compound 70, 2-amino-N-(5-chloro-4-((4-chlorophenyl)(cyano)methyl)-2-methylphenyl)benzamide], the pIC50 on native MDH (Table 2) is below 4.20; on HSP60/10 (Table 2), below 4.00; at GroEL/ES, 4.36.
`COc1ccc(Cl)cc1C(=O)Nc1ccc(Oc2ccccc2)c(Cl)c1` [Compound 90, 5-chloro-N-(3-chloro-4-phenoxyphenyl)-2-methoxybenzamide]: the pIC50 on native MDH (Table 3) was below 4.20; on HSP60/10 (Table 3), below 4.00; against GroEL/ES, below 4.00.
As for `O=C(Nc1ccccc1)c1cc(Cl)ccc1O` [Compound 117, 5-chloro-2-hydroxy-N-phenylbenzamide], the results for the pIC50 on native MDH (Table 3), on HSP60/10 (Table 3) and at GroEL/ES were below 4.20, below 4.00 and below 4.00, respectively.
For the compound `COc1ccc(C(=O)Nc2cc(Cl)c(C(C#N)c3ccc(Cl)cc3)cc2C)cc1` (centres unmarked) [Compound 63, N-(5-chloro-4-((4-chlorophenyl)(cyano)methyl)-2-methylphenyl)-4-methoxybenzamide], the pIC50 at native MDH (Table 2) is below 4.20; on HSP60/10 (Table 2) it was below 4.00; at GroEL/ES, 4.19.
Regarding `COc1ccc(Cl)cc1C(=O)Nc1ccc(Oc2ccc(Cl)cc2)cc1` [Compound 88, 5-chloro-N-(4-(4-chlorophenoxy)phenyl)-2-methoxybenzamide], the pIC50 is below 4.20 at native MDH (Table 3), below 4.00 on HSP60/10 (Table 3) and below 4.00 against GroEL/ES.
Take `O=C(Nc1ccc(Cc2ccccc2)cc1)c1cc(Cl)ccc1O` [Compound 99, N-(4-benzylphenyl)-5-chloro-2-hydroxybenzamide]: the pIC50 on native MDH (Table 3) is below 4.20; on HSP60/10 (Table 3) it was below 4.00; against GroEL/ES, 4.11.
For `Cc1cc(C(C#N)c2ccc(Cl)cc2)c(Cl)cc1NC(=O)c1ccc(Cl)cc1` (centres unmarked) [Compound 78, 4-chloro-N-(5-chloro-4-((4-chlorophenyl)(cyano)methyl)-2-methylphenyl)benzamide], the pIC50 is below 4.20 on native MDH (Table 2), below 4.00 on HSP60/10 (Table 2) and 4.20 at GroEL/ES.
For `N#CC(c1ccccc1)c1ccc(NC(=O)c2cc(Cl)ccc2O)cc1` (centres unmarked) [Compound 85, 5-chloro-N-(4-(cyano(phenyl)methyl)phenyl)-2-hydroxybenzamide], the pIC50 at native MDH (Table 3) was below 4.20; on HSP60/10 (Table 3) it was 4.12; on GroEL/ES it was 4.25.
On to `Cc1cc(C(C#N)c2ccc(Cl)cc2)c(Cl)cc1NC(=O)c1ccccc1F` (centres unmarked) [Compound 79, N-(5-chloro-4-((4-chlorophenyl)(cyano)methyl)-2-methylphenyl)-2-fluorobenzamide], for which the pIC50 was below 4.20 at native MDH (Table 2), below 4.00 at HSP60/10 (Table 2) and 4.05 against GroEL/ES.
On to `COc1ccc(Cl)cc1C(=O)Nc1ccc(CCc2ccccc2)cc1` [Compound 100, 5-chloro-2-methoxy-N-(4-phenethylphenyl)benzamide], for which the pIC50 at native MDH (Table 3) is below 4.20; on HSP60/10 (Table 3) it was below 4.00; against GroEL/ES, below 4.00.
`Cc1cc(C(C#N)c2ccc(Cl)cc2)c(Cl)cc1NC(=O)c1ccc(N)cc1` (centres unmarked) [Compound 72, 4-amino-N-(5-chloro-4-((4-chlorophenyl)(cyano)methyl)-2-methylphenyl)benzamide]: the values for the pIC50 on native MDH (Table 2), on HSP60/10 (Table 2) and at GroEL/ES were below 4.20, 4.14 and 4.33, respectively.
